Legend:
[1] = Autoclaving of the casting solution; format: physicochemical; conditions: preliminary trial
canine patients [2] = system: canine patients
canine patients [3] = conditions: intravenous route
Description: On the report forms supplied with the product, if any of these occurred the clinicians were asked to grade them on a subjective scale of 1 to 5 with a score of 1 being mild and 5 being severe. The clinicians were also asked to rate the ease of use of the inserts for each case with a score of 5 being very easy to use and 1 being very difficult.

[4] = subjective scale, 5 severe, Median (25%-75%)

SMILES | stability under conditions required for autoclaving [1] | % of Patients, Success (canine patients [2]; intravenous 0.03-0.04 mg kg-1, emesis within 15 minutes, n 32) [%] | Time to emesis (canine patients [2]; intravenous 0.03-0.04 mg kg-1, median, n 32 (Success 29)) [min] | % of Patients, Failure (canine patients [2]; intravenous 0.03-0.04 mg kg-1, n 32) [%] | % of patients showing no emesis at all (canine patients [2]; intravenous route, n 32) [%] | Prolonged vomiting, Frequency (%) (canine patients [3]; n = 32) | Sedation, Frequency (%) (canine patients [3]; n = 32) | Tachycardia, Frequency (%) (canine patients [3]; n = 32) | Prolonged vomiting, Score (canine patients [3]; [4]) | Sedation, Score (canine patients [3]; [4]) | Tachycardia, Score (canine patients [3]; [4])
CN1CCc2cccc3c2[C@H]1Cc1ccc(O)c(O)c1-3 [apomorphine] | unstable | – | – | – | – | – | – | – | – | – | –
CN1CCc2cccc3c2[C@H]1Cc1ccc(O)c(O)c1-3.Cl [intravenous apomorphine, apomorphine HCI] | – | 90.6 | 1.0 | 9.4 | 9.4 | 3.1 | 43.8 | 15.6 | 3 (3-3) | 2 (1-2) | 2 (2-3)

Source: US20080171072A1, “OCULAR INSERTS CONTAINING APOMORPHINE” (priority 2006, published 2008)
